For five compounds, Ki results are on record in BindingDB's records for doi:10.1124/jpet.301.3.1097 (Harvard University, 2002).

In assay [1] the target is Norepinephrine transporter (Rattus norvegicus, UniProt Q9JIA2).
In assay [2] the target is Sodium-dependent dopamine transporter (Rattus norvegicus, UniProt P23977).
For assay [3], the target named is Sodium-dependent serotonin transporter (Rattus norvegicus, UniProt P31652).
Sequence of Sodium-dependent serotonin transporter (P31652 whole entry): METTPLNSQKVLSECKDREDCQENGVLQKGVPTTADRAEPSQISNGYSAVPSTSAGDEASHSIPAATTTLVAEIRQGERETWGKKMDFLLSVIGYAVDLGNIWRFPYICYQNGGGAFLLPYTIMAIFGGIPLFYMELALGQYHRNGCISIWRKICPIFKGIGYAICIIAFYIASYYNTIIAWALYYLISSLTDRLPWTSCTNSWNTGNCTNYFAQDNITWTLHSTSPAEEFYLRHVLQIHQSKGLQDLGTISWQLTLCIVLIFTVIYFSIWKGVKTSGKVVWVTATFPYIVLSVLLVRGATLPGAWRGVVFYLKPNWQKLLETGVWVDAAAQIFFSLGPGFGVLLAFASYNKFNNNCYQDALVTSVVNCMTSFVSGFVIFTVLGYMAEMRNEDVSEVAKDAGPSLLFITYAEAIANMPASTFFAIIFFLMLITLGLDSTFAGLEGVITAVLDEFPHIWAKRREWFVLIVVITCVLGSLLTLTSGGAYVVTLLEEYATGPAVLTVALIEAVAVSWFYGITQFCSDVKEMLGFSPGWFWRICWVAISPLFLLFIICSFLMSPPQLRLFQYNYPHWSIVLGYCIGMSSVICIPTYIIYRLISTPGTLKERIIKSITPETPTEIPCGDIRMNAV

Sequence of Sodium-dependent dopamine transporter (P23977 whole entry): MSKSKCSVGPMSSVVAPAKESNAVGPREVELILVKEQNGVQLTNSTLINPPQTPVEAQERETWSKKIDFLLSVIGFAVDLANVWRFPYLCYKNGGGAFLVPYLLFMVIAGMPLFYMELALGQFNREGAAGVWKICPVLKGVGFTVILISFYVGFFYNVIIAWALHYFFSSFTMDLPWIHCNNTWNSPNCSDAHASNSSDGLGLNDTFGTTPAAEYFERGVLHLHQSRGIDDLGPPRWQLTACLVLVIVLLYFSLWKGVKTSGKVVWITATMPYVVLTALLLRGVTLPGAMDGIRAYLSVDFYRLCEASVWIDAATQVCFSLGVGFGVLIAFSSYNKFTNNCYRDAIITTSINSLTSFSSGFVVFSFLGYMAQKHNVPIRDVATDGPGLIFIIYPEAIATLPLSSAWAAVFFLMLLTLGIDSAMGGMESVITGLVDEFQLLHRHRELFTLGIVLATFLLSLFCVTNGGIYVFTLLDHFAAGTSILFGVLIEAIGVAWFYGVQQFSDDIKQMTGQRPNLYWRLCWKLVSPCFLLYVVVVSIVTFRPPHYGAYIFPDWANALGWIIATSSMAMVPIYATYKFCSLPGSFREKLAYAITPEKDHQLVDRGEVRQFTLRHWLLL

As for `CCn1cc(C(=O)O)c(=O)c2ccc(Cc3ccccc3)nc21`, the Ki (as a rule, the equilibrium dissociation constant of an inhibitor or competing ligand from its target) in assay [1] is over 10 µM; in assay [2] it was 0.0187 µM.

On to `CNCCC(Oc1ccccc1OC)c1ccccc1` (stereo not drawn) [3-(2-methoxyphenoxy)-N-methyl-3-phenylpropan-1-amine], for which the inhibition constant Ki in assay [1] was found to be 0.00046 µM. This lies in the sub-nanomolar range.

On to `COCCCC/C(=N\OCCN)c1ccc(C(F)(F)F)cc1` [(1E)-5-methoxy-1-[4-(trifluoromethyl)phenyl]pentan-1-one O-(2-aminoethyl)oxime], for which the Ki in assay [1] was 5 µM; in assay [2] it was over 10 µM.

The compound `C[C@H](N)Cc1ccccc1` [beta-aminopropylbenzene] yielded an inhibition constant (Ki) in assay [1] of 1 µM. In other words, the single-digit micromolar range.

Consider `COC(=O)[C@H](c1ccccc1)[C@H]1CCCCN1` [methyl (2R)-phenyl[(2R)-piperidin-2-yl]acetate], for which the values for the inhibition constant Ki in assay [1] and in assay [3] were 0.126 µM and over 10 µM, respectively.
